# Test results reported in patent US6331565A, “Dicaffeoylquinic acid for treating hepatitis B and the diseases associated with retrovirus, and the new caffeoylquinic acid derivatives” (Institute of Radiation Medicine Academy of Military Medical …, priority 1996, dated 2001).
# Read-outs that look alike come from different tables or passages of the source.
# Columns and labels:
# [1] = tested on: HBsAg; test: microbe, parasite or virus in culture; assay type: cell-based, HBV; conditions: ACV, concentration not given
# Procedure: (§1) The cultures were passenged by trypsinization every 4 days.
# (§2) HBsAg and HBeAg in the culture medium were determined according to the protocol respectively. The culture medium (200 μl) was absorbed on beads containing antibody to HBsAg/HBeAg in the presence of the conjugate. After overnight incubation, the beads were washed 6 times with […] PBS containing 0.05% Tween-80 and incubated with 200 μl of [^125 I] anti-HBs(Hbe) overnight. The beads were washed 6 times as above. The amounts HBsAg/HBeAg as measure of cpm of [^125 I] labeled immunocomplex was counted on γ-counter.
# [2] = tested on: HBeAg; test: microbe, parasite or virus in culture; assay type: cell-based, HBV; conditions: ACV, concentration not given
# Procedure: as §1, §2
# [3] = tested on: DHBV; test: anti-DHBV test in ducks (serum DHBV DNA dot blot); assay type: in vivo, DHBV in Peking (Beijing) ducks; conditions: for DHBV DNA, grayness of the dot: 50 mg/kg, X ± SD, n = 7
# Procedure: One-day-old ducklings were infected with a 200 μl intravenous injection of DHBV-positive serum containing 10^11 viral genome equivalents per milliliter. Treatment began when ducklings were 7 days old. A total 89 seven-day-old viraemic ducks were distributed at random into five groups. […] Post-treatment follow-up was carried over a period of 5 days. Blood samples were obtained repectively from the leg vein of all ducks and stored at -70° C. after serum separation, prior to treatment, weekly during the treatment, and for 5 days after cessation of treatment. They were screened for presence of DHBV DNA by dot blot hybridization.
# DHBV DNA in serum was analyzed by molecular hybridization using full length DHBV DNA clones in PB325. The DHBV DNA insert was purified by agarose gel electrophoresis after digestion with EcoRI. The DHBV DNA was radiolabeled with α^32 P-dCTP random oligopriming with Klenow fragment. Dot blot hybridization was carried out by the method of Scotto et al. Briefly, an aliquot (200 μl) serum was spotted onto a nylon membrane (Hybond-N, Amersham International, England) in dot blot manifold and denatured with 0.5 M NaOH--NaCl at room temperature for 30 min. Each spotted sample was neutralized in 1M Tris.HCl-1.5M NaCl (pH8.0). The DNA on the membrane was fixed by heating at 80° C. for 2 h, and prehybridization at 37° C. overnight in 50% formamide, 5×Denhardt's, 6×SSC,[…], 0.5% SDS and 10 mg/ml of calf thymus DNA. Hybridization was initiated by adding DHBV [^32 P] DNA probes at 10^6 cpm/ml at the same prehybridization conditions overnight. The membrane was washed in 3×SSC-0.1% SDS at room temperature, 42° C. and 65° C. for 10 min respectively. After hybridization the membranes were air-dried and exposed for periods of up to 14 days at -70° C. with Kodak film with an enhancer screen. The amount of viral DNA were assayed by both densitometry and image analysis of autoradiographic membranes.
# [4] = tested on: lymphocyte proliferation induced by Con A; conditions: 50 mg/kg; for RPI: Normal = 100
# Procedure: mice. Five-wk-old female C57BL/6 mice were used throughout the experiments. All mice were housed in sterile cages in a room supplied with filtrated air. They were given pelleted food and chlorinated water ad libitum.
# Infection with LP-BM5 MuLV. Cell-free supernatants of LP-BM5 MULV were prepared by cocultivating G6 SC-1 clones with normal SC-1 cells for 5 days. Mice were inoculated intraperitoneally with 150 μl of stock solution containing 10^3,4×C plaque-forming units and 10^2,3 Mink-cell focks-forming units per […].
# Then, the spleens were collected. Cell suspensions were prepared by repeated passage of whole spleen through a pipette, the capsule and debris were allowed to settle, and the supernatants containing cells were collected and washed twice in PBS. […] Incubation continued for 16 hr, then cells were collected on filter that was determined by a scintillation counter.
# [5] = target: T1, HBV DNA polymerase (Hepatitis B virus genotype D subtype ayw, UniProt P03156); test: HBV DNA polymerase assay; assay type: biochemical
# T1 construct: HBV DNA polymerase in viral particles; host or cells: viral particles
# T1 sequence (P03156 whole entry): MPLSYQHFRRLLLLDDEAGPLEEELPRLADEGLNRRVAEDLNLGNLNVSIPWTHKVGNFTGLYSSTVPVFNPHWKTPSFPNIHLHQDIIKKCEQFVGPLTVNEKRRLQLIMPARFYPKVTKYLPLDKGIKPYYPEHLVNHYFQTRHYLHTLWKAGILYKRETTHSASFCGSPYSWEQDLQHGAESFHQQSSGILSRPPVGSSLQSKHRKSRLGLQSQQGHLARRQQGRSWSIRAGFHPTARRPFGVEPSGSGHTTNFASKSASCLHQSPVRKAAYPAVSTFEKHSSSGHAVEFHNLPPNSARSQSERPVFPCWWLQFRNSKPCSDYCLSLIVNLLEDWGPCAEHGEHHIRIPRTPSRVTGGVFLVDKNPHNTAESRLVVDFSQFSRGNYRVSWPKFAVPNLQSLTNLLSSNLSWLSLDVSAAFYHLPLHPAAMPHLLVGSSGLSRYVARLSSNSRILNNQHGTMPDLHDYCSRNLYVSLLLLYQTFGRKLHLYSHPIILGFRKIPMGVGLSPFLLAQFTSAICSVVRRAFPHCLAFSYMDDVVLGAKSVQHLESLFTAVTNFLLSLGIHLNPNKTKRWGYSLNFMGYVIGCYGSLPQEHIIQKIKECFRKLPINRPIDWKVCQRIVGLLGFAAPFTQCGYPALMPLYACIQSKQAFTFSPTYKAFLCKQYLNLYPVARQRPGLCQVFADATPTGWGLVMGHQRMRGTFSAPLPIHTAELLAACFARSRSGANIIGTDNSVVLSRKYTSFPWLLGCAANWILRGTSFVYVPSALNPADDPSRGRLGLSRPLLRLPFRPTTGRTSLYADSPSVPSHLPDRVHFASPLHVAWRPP
# Procedure: Assay was performed as described by Hantz (Antiviral Res 4(1984) 187-199) with minor modification. The Reaction mixture consisted of HBV DNA polymerase in viral particles in 200 mmol.l^-1 of Tris-HCl pH 7.6, 200 mmol.l^-1 of NH4 Cl. 50 mmol.l^-1 of MgCl2, 10 mmol.l^-1 of 2-mercaptoethanol, 2% Nonidet P-40 and 300 μmol.l^-1 concentrations of deoxynucleotide triphosphates except for [^3 H]dTTP, which was included in the assay at 20 μci.ml^-1. […] The mixtures were incubated at 37° C. for 4 h prior to spotting on Whatman No.3 filter paper which was washed 4 times with cold 5% trichloroacitic acid, then with ethanol. The HBV DNA polymerase activity as measure of the incorperation of the radionucleotide into the viral DNA was counted in a Recbeta (LKB)scintilation counter.
smiles,measurement,setting,value
"Nc1nc2c(ncn2COCCO)c(=O)[nH]1 [ACV, acyclovir, reference compound]",HBsAg Inhibit rate (%),[1]; day 4,48.20%
same,HBsAg cpm,[1]; day 4,710.1 ± 65.7 cpm
same,HBsAg Inhibit rate (%),[1]; day 8,29.54 ± 5.15%
same,HBsAg cpm,[1]; day 8,870.1 ± 51.1 cpm
same,HBsAg Inhibit rate (%),[1]; day 12,23.22%
same,HBsAg cpm,[1]; day 12,622.5 ± 58.8 cpm
same,HBeAg Inhibit rate (%),[2]; day 4,26.22 ± 1.17%
same,HBeAg cpm,[2]; day 4,3910.9 ± 57.6 cpm
same,HBeAg Inhibit rate (%),[2]; day 8,26.75 ± 1.21%
same,HBeAg cpm,[2]; day 8,6101.9 ± 96.17 cpm
same,HBeAg Inhibit rate (%),[2]; day 12,3.71 ± 1.36%
same,HBeAg cpm,[2]; day 12,8194.1 ± 111.5 cpm
same,"DHBV DNA, grayness of the dot",[3]; P5 (day 5 after withdrawal),9.0 ± 8.6 K Grayness
same,"DHBV DNA, grayness of the dot","[3]; day 0 (before treatment), oral",6.3 ± 4.2 K Grayness
same,"DHBV DNA, grayness of the dot","[3]; day 7, oral",0.1 ± 0.3 K Grayness
same,"DHBV DNA, grayness of the dot","[3]; day 14, oral",0.0 ± 0 K Grayness
same,viraemia returned to a level higher than that of pretreatment by,[3]; day 5 after cessation of treatment,43%
same,DHBV DNA from the sera,"[3]; during the 14 days of therapy, all 7 treated birds",substantial decrease of DHBV DNA from the sera
Cc1cn([C@H]2C[C@H](N=[N+]=[N-])[C@@H](CO)O2)c(=O)[nH]c1=O [AZT],cpm,[4]; Con A (5 μg/ml),53287 ± 2043 cpm
same,RPI,[4]; Con A (5 μg/ml),95.10
same,cpm,[4]; Con A ([…]),33212 ± 2609 cpm
same,RPI,[4]; Con A ([…]),93.21
"O=C(O)P(=O)(O)O [PFA, reference compound]",IC50,[5],184 µM
same,inhibitory effect on HBV DNAp,[5],dose-dependent inhibitory effect
same,cpm,[5]; 1 μg/ml,10267 ± 77 cpm
same,cpm,[5]; 10 μg/ml,5495 ± 218 cpm
same,cpm,[5]; 100 μg/ml,3065 ± 67 cpm
same,cpm,[5]; 1000 μg/ml,2377 ± 329 cpm
same,inhibition at 1 µg/mL,[5]; read-out: Inhibitory rate (%),-5.2 ± 15.3%
same,inhibition at 10 µg/mL,[5]; read-out: Inhibitory rate (%),44.4 ± 2.3%
same,inhibition at 100 µg/mL,[5]; read-out: Inhibitory rate (%),69.7 ± 0.7%
same,inhibition at 1000 µg/mL,[5]; read-out: Inhibitory rate (%),76.8 ± 3.4%
